Measured values taken from US8324245B2, “Quinoline derivative and quinazoline derivative inhibiting self-phosphorylation of hepatocytus proliferator receptor, and medicinal composition containing the same” (Kyowa Hakko Kirin Co., Ltd., priority 2001, dated 2012).

Molecular target: T1, met (HGF receptor) in human gastric cancer cells MKN45 (Homo sapiens, UniProt P08581)
T1 construct: endogenous in cells; host or cells: MKN45 human gastric cancer cells
Assay: Inhibitory activity against met-autophosphorylation using ELISA method (2), MKN45 cells, HGF-independent
Assay type: cell-based
Procedure, shortened: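 MKN45 cells, 3×10^4 per well in RPMI with 0.1% FCS overnight, were exposed to compound in DMSO for 1 h at 37 °C without HGF. Lysates were captured on anti-phosphotyrosine (PY20) plates, Met detected with anti-Met and peroxidase secondary antibody, absorbance at 450 nm.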

T1 sequence (P08581 25-1390): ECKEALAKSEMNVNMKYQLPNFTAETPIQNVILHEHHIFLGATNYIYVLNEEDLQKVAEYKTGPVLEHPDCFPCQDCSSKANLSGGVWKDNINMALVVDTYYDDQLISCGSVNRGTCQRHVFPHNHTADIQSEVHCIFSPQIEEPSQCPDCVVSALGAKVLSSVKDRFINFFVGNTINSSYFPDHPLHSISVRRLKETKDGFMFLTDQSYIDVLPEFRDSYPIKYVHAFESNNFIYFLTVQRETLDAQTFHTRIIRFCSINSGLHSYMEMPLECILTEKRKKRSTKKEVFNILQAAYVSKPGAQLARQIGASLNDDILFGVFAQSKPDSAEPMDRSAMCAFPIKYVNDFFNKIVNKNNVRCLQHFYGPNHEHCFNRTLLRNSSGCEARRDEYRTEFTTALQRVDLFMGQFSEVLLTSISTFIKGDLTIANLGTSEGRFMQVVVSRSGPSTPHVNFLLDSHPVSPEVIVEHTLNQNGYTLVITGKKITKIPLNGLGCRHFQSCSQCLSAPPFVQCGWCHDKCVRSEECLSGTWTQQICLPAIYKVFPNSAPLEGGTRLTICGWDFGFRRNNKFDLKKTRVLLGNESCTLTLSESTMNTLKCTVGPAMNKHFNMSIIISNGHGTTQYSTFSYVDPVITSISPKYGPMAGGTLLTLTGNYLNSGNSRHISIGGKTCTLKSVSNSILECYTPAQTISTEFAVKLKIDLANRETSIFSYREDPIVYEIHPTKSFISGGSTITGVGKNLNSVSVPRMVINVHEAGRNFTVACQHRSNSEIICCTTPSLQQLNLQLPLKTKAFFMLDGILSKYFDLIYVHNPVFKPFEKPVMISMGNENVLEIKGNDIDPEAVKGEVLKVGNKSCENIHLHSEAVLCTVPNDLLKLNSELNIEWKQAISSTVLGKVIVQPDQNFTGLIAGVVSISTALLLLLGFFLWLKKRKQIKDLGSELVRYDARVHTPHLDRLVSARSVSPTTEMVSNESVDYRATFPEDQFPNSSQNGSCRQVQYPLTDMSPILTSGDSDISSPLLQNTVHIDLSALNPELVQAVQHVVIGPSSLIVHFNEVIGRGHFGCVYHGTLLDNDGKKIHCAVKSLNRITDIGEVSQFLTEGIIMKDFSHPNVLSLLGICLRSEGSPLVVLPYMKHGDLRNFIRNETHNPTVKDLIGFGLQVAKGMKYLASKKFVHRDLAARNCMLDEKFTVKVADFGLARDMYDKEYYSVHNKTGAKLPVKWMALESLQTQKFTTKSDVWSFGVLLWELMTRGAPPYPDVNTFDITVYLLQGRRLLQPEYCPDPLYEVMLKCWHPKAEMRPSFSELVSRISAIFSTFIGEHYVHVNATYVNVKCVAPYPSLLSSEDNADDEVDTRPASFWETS

Row | Compound | IC50 [nM]
1 | COc1cc2nccc(Oc3ccc(NC(=O)NC(=O)Nc4ccc5c(c4)OCCO5)cc3)c2cc1OC [Example 238, N-(2,3-dihydro-1,4-benzodioxin-6-yl)-({[4-(6,7-dimethoxyquinolin-4-yloxy)anilino]carbonyl}amino)-methanamide] | 4020
2 | COc1cc2c(Oc3ccc(NC(=O)NC(=O)Cc4ccccc4)cc3F)ccnc2cc1OCCCCN1CCN(C)CC1 [Example 12, 1-(3-fluoro-4-{6-methoxy-7-[4-(4-methyl-piperazin-1-yl)-butoxy]quinolin-4-yloxy}phenyl)-3-phenylacetylurea] | 199
3 | COc1cc2nccc(Oc3ccc(NC(=S)NC(=O)Cc4cc(F)ccc4F)c(F)c3)c2cc1OC [Example 96, 1-[2-(2,5-difluorophenyl)acetyl]-3-[4-(6,7-dimethoxyquinolin-4-yloxy)-2-fluorophenyl]thiourea] | 171
4 | COc1cc2c(Oc3ccc(NC(=O)NC(=O)Cc4ccc(F)cc4)cc3F)ccnc2cc1OCCCN1CCCCC1 [Example 47, 1-{3-fluoro-4-[6-methoxy-7-(3-piperidin-1-yl-propoxy)quinolin-4-yloxy]phenyl}-3-[2-(4-fluorophenyl)-acetyl]urea] | 215
5 | COc1cc2nccc(Oc3ccc(NC(=S)NC(=O)Cc4ccccc4)cc3OC)c2cc1OC [Example 68, 1-[4-(6,7-dimethoxyquinolin-4-yloxy)-3-methoxyphenyl]-3-phenylacetylthiourea] | 194
6 | COc1cc2nccc(Oc3ccc(NC(=O)NC(=O)CSC4CCCCC4)c(F)c3)c2cc1OC [Example 114, 1-(2-cyclohexylsulfanylacetyl)-3-[4-(6,7-dimethoxyquinolin-4-yloxy)-2-fluorophenyl]urea] | 485
7 | COc1cc2c(Oc3ccc(NC(=O)NC(=O)Cc4ccc(F)cc4)cc3F)ccnc2cc1OCCN1CCOCC1 [Example 55, 1-{3-fluoro-4-[6-methoxy-7-(2-morpholin-4-yl-ethoxy)quinolin-4-yloxy]phenyl}-3-[2-(4-fluorophenyl)-acetyl]urea] | 245
8 | COc1cc2nccc(Oc3ccc(NC(=O)NC(=O)Cc4c(F)cccc4F)c(F)c3)c2cc1OC [Example 134, 1-[2-(2,6-difluorophenyl)acetyl]-3-[4-(6,7-dimethoxyquinolin-4-yloxy)-2-fluorophenyl]urea] | 232
9 | COc1cc2nccc(Oc3ccc(NC(=O)CC(=O)N(C)c4ccccc4)cc3)c2cc1OC [Example 216, N-[4-(6,7-dimethoxyquinolin-4-yloxy)phenyl]-N′-methyl-N′-phenylmalonamide] | 228
10 | COc1ccccc1CC(=O)NC(=S)Nc1ccc(Oc2ccnc3cc(OC)c(OC)cc23)cc1 [Example 153, 1-[4-(6,7-dimethoxyquinolin-4-yloxy)phenyl]-3-[2-(2-methoxyphenyl)acetyl]thiourea] | 232
11 | COc1cc2nccc(Oc3ccc(NC(=S)NC(=O)Cc4c(F)ccc(F)c4F)cc3F)c2cc1OC [Example 206, 1-[4-(6,7-dimethoxyquinolin-4-yloxy)-3-fluorophenyl]-3-[2-(2,3,6-trifluorophenyl)acetyl]-thiourea] | 444
12 | COc1cc2nccc(Oc3ccc(NC(=O)CC(=O)Nc4ccc(F)cc4F)c(C)c3)c2cc1OC [Example 223, N-(2,4-difluorophenyl)-N′-[4-(6,7-dimethoxy-quinolin-4-yloxy)-2-methylphenyl]malonamide] | 268
13 | COc1cc2nccc(Oc3ccc(NC(=S)NC(=O)Cc4cccc(F)c4)cc3)c2cc1OC [Example 164, 1-[4-(6,7-dimethoxyquinolin-4-yloxy)phenyl]-3-[2-(3-fluorophenyl)acetyl]thiourea] | 242
14 | COc1cc2nccc(Oc3ccc(NC(=O)NC(=O)Nc4ccc(F)cc4Cl)cc3)c2cc1OC [Example 250, N-(2-chloro-4-fluorophenyl)-({[4-(6,7-dimethoxyquinolin-4-yloxy)anilino]carbonyl}amino)-methanamide] | 447
15 | COc1cc2nccc(Oc3ccc(NC(=O)NC(=O)Nc4ccccn4)cc3)c2cc1OC [Example 236, N-(2-pyridyl)-({[4-(6,7-dimethoxyquinolin-4-yloxy)anilino]carbonyl}amino)methanamide] | 235
16 | COc1cc2nccc(Oc3ccc(NC(=O)NC(=O)Nc4cc(C)on4)cc3)c2cc1OC [Example 232, N-(5-methyl-3-isoxazolyl)-({[4-(6,7-dimethoxyquinolin-4-yloxy)anilino]carbonyl}amino)-methanamide] | 256
17 | COc1cccc(CC(=O)NC(=S)Nc2ccc(Oc3ccnc4cc(OC)c(OC)cc34)cc2F)c1 [Example 185, 1-[4-(6,7-dimethoxyquinolin-4-yloxy)-2-fluorophenyl]-3-[2-(3-methoxyphenyl)acetyl]thiourea] | 248
18 | COc1cc2nccc(Oc3ccc(NC(=O)NC(=O)CN4CCC(Cc5ccccc5)CC4)cc3F)c2cc1OC [Example 120, 1-[2-(4-benzyl-piperidin-1-yl)acetyl]-3-[4-(6,7-dimethoxyquinolin-4-yloxy)-3-fluorophenyl]urea] | 1570

Now from value to compound:

Row | IC50 [nM] | Compound
19 | 42.2 | COc1cc2c(Oc3ccc(NC(=S)NC(=O)Cc4ccccc4Cl)cc3F)ccnc2cc1OCC(O)CN1CCCC1 (stereo not drawn) [Example 317, 1-[2-(2-Chloro-phenyl)-acetyl]-3-{3-fluoro-4-[7-(2-hydroxy-3-pyrrolidin-1-yl-propoxy)-6-methoxy-quinolin-4-yloxy]-phenyl}-thiourea]
20 | 26.7 | COc1cc2c(Oc3ccc(NC(=S)NC(=O)Cc4ccccc4)cc3F)ccnc2cc1OCCN1CCN(C)CC1 [Example 270, 1-(3-Fluoro-4-{6-methoxy-7-[2-(4-methyl-piperazin-1-yl)-ethoxy]-quinolin-4-yloxy}-phenyl)-3-phenylacetyl-thiourea]
21 | 40.1 | COc1cc2nccc(Oc3ccc(NC(=S)NC(=O)CC4C5CCC4CC5)cc3Cl)c2cc1OC (stereo not drawn) [Example 91, 1-(2-bicyclo[2.2.1]hepto-7-ylacetyl)-3-[3-chloro-4-(6,7-dimethoxyquinolin-4-yloxy)phenyl]thiourea]
22 | 171 | COc1cc2c(Oc3ccc(NC(=O)NC(=O)Cc4ccccc4)cc3F)ccnc2cc1OCCCN1CCCCC1 [Example 52, 1-{3-fluoro-4-[6-methoxy-7-(3-piperidin-1-yl-propoxy)quinolin-4-yloxy]phenyl}-3-phenylacetylurea]
23 | 24.6 | COc1cc2nccc(Oc3ccc(NC(=O)NC(=O)Cc4ccc(F)cc4)cc3)c2cc1OC [Example 22, 1-[4-(6,7-dimethoxyquinolin-4-yloxy)phenyl]-3-[2-(4-fluorophenyl)acetyl]urea]
24 | 92 | CCOCCC(=O)NC(=S)Nc1ccc(Oc2ccnc3cc(OC)c(OC)cc23)cc1 [Example 62, 1-[4-(6,7-dimethoxyquinolin-4-yloxy)phenyl]-3-(3-ethoxypropionyl)thiourea]
25 | 41.4 | COc1cc2nccc(Oc3ccc(NC(=O)NC(=O)Cc4ccc(F)c(F)c4)cc3F)c2cc1OC [Example 35, 1-[2-(3,4-difluorophenyl)acetyl]-3-[4-(6,7-dimethoxyquinolin-4-yloxy)-3-fluorophenyl]urea]
26 | 79.2 | COc1cc2nccc(Oc3ccc(NC(=S)NC(=O)Cc4cccs4)cc3)c2cc1OC [Example 66, 1-[4-(6,7-dimethoxyquinolin-4-yloxy)phenyl]-3-(2-thiophen-2-ylacetyl)thiourea]
27 | 21.1 | COc1cc2c(Oc3ccc(NC(=S)NC(=O)Cc4ccc(F)cc4)cc3F)ccnc2cc1OCCCN1CCC(CO)CC1 [Example 310, 1-(3-Fluoro-4-{7-[3-(4-hydroxymethyl-piperidin-1-yl)-propoxy]-6-methoxy-quinolin-4-yloxy}-phenyl)-3-[2-(4-fluoro-phenyl)-acetyl]-thiourea]
28 | 28.1 | COc1cc2nccc(Oc3ccc(NC(=S)NC(=O)CC4C5CCC4CC5)cc3F)c2cc1OC (stereo not drawn) [Example 90, 1-(2-bicyclo[2.2.1]hepto-7-ylacetyl)-3-[4-(6,7-dimethoxyquinolin-4-yloxy)-3-fluorophenyl]thiourea]
29 | 26.1 | COc1cc2c(Oc3ccc(NC(=O)NC(=O)Cc4ccccc4)cc3F)ccnc2cc1OCCN1CCOCC1 [Example 54, 1-{3-fluoro-4-[6-methoxy-7-(2-morpholin-4-yl-ethoxy)quinolin-4-yloxy]phenyl}-3-phenylacetylurea]
30 | 74.3 | COc1cc2nccc(Oc3ccc(NC(=S)NC(=O)Cc4ccc(C)cc4)cc3Cl)c2cc1OC [Example 82, 1-[3-chloro-4-(6,7-dimethoxyquinolin-4-yloxy)-phenyl]-3-(2-p-tolylacetyl)thiourea]
31 | 33.9 | COc1cc2c(Oc3ccc(NC(=O)NC(=O)Cc4ccccc4F)cc3F)ccnc2cc1OCCCn1ccnc1 [Example 306, 1-{3-Fluoro-4-[7-(3-imidazol-1-yl-propoxy)-6-methoxy-quinolin-4-yloxy]-phenyl}-3-[2-(2-fluoro-phenyl)-acetyl]-urea]
32 | 23.5 | COc1cc(Oc2ccnc3cc(OC)c(OC)cc23)ccc1NC(=S)NC(=O)Cc1ccsc1 [Example 86, 1-[4-(6,7-dimethoxyquinolin-4-yloxy)-2-methoxyphenyl]-3-(2-thiophen-3-ylacetyl)thiourea]
33 | 52.6 | COc1cc2nccc(Oc3ccc(NC(=S)NC(=O)CC4C5CCC4CC5)c(F)c3)c2cc1OC (stereo not drawn) [Example 89]
34 | 89 | COc1cc2c(Oc3ccc(NC(=S)NC(=O)Cc4ccccc4F)cc3Cl)ccnc2cc1OCCCN1CCOCC1 [Example 298, 1-{3-Chloro-4-[6-methoxy-7-(3-morpholin-4-yl-propoxy)-quinolin-4-yloxy]-phenyl}-3-[2-(2-fluoro-phenyl)-acetyl]-thiourea]
35 | 27.7 | COc1cc2nccc(Oc3ccc(NC(=O)NC(=O)Cc4ccc(F)cc4)cc3Cl)c2cc1OC [Example 24, 1-[3-chloro-4-(6,7-dimethoxyquinolin-4-yloxy)phenyl]-3-[2-(4-fluorophenyl)acetyl]urea]
36 | 34.1 | COc1cc2nccc(Oc3ccc(NC(=O)NC(=O)Cc4cccs4)cc3F)c2cc1OC [Example 31, 1-[4-(6,7-dimethoxyquinolin-4-yloxy)-3-fluoro-phenyl]-3-(2-thiophen-2-ylacetyl)urea]
